Results as given in ChEMBL document CHEMBL2429832, “N-substituted 8-aminopentacyclo[5.4.0.0(2,6).0(3,10).0(5,9)]undecanes as σ receptor ligands with potential neuroprotective effects” (Bioorg Med Chem, 2013).

Key:
[1] = target: 5-hydroxytryptamine receptor 1E (Homo sapiens) (UniProt P28566); assay: Inhibition of 5-HT1E receptor (unknown origin) at 10 uM by PDSP assay relative to control
[2] = target: Beta-3 adrenergic receptor (Homo sapiens) (UniProt P13945); assay: Inhibition of adrenergic beta3 receptor (unknown origin) at 10 uM by PDSP assay relative to control
Chain of Beta-3 adrenergic receptor (Homo sapiens) (P13945 whole entry, looked up): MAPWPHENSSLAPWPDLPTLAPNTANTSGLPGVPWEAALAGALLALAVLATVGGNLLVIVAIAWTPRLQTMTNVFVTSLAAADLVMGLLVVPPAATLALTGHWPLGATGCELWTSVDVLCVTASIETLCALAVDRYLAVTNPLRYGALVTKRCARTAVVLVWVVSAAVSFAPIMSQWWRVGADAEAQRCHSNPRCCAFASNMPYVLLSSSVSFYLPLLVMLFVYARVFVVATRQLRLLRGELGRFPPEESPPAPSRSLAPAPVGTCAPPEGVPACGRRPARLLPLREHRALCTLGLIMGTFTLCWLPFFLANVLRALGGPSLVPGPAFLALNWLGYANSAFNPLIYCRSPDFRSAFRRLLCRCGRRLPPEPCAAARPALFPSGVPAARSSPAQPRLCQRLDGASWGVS

[3] = target: 5-hydroxytryptamine receptor 1B (Homo sapiens, UniProt P28222); assay: Inhibition of 5-HT1B receptor (unknown origin) at 10 uM by PDSP assay relative to control
Chain of 5-hydroxytryptamine receptor 1B (P28222 whole entry): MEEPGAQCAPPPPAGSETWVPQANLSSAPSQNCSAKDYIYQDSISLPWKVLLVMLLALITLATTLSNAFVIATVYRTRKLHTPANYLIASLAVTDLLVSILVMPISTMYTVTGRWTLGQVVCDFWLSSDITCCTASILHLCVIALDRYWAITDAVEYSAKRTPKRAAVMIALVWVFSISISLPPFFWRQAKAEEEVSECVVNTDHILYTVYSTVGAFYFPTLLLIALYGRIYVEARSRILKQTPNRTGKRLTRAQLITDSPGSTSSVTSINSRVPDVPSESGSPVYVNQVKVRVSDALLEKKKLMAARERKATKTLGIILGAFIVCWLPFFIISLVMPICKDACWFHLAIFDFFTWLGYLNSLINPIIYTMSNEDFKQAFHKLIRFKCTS

[4] = target: D(1A) dopamine receptor (Homo sapiens) (UniProt P21728); assay: Inhibition of dopamine D1 receptor (unknown origin) at 10 uM by PDSP assay relative to control
Chain of D(1A) dopamine receptor (Homo sapiens) (P21728 whole entry): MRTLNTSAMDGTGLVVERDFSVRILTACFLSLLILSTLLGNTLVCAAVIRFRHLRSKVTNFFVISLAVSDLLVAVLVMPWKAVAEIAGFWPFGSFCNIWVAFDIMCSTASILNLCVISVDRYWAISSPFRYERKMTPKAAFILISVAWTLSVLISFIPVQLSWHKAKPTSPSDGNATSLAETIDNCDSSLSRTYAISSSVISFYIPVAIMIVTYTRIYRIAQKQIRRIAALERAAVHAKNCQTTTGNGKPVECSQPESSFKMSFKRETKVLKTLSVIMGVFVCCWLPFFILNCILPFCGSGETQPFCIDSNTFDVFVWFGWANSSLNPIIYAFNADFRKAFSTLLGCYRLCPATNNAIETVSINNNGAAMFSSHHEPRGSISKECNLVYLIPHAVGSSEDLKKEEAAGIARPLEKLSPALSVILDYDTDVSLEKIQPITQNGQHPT

[5] = target: T1, D(4) dopamine receptor (Homo sapiens) (UniProt P21917); assay: Inhibition of dopamine D4 receptor (unknown origin) at 10 uM by PDSP assay relative to control
T1 sequence (whole entry): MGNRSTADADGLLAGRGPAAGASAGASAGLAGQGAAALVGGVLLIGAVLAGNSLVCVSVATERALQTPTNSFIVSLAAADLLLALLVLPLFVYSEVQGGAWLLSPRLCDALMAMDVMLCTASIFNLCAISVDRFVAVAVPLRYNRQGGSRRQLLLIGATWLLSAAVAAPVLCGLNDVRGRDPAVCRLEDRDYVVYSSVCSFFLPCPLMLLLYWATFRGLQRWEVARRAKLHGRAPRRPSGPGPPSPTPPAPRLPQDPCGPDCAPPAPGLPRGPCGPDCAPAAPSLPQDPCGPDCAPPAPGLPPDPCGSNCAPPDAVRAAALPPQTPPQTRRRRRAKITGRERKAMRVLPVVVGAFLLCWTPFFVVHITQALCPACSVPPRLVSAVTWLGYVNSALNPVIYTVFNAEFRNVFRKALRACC

[6] = target: T2, 5-hydroxytryptamine receptor 3A (Homo sapiens) (UniProt P46098); assay: Inhibition of 5-HT3 receptor (unknown origin) at 10 uM by PDSP assay relative to control
T2 sequence (whole entry): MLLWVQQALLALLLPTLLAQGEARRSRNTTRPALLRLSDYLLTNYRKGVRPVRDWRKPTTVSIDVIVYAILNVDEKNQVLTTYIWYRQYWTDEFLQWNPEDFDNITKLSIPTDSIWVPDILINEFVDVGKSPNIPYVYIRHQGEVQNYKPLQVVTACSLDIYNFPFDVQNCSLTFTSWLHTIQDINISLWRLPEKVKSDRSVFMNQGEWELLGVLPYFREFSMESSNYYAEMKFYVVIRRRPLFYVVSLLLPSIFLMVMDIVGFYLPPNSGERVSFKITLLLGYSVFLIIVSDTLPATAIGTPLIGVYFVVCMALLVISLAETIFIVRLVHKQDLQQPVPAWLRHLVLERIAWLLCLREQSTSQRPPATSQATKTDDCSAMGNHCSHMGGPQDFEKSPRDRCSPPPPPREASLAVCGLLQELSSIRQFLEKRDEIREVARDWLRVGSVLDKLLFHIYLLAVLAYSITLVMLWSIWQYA

[7] = target: Beta-2 adrenergic receptor (Homo sapiens) (UniProt P07550); assay: Inhibition of adrenergic beta2 receptor (unknown origin) at 10 uM by PDSP assay relative to control
Chain of Beta-2 adrenergic receptor (Homo sapiens) (P07550 whole entry, looked up): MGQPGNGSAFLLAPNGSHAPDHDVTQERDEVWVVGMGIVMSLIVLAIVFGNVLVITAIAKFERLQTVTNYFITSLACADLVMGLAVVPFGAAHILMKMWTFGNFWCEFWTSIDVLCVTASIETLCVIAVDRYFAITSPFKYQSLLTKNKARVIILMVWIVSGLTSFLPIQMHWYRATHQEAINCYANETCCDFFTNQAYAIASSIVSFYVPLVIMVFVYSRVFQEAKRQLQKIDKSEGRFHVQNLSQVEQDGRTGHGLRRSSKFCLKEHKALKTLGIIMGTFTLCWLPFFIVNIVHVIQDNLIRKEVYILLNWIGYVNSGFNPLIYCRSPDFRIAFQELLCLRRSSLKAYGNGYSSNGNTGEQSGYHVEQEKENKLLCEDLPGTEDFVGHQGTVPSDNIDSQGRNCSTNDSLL

[8] = target: T3, 5-hydroxytryptamine receptor 2C (Homo sapiens) (UniProt P28335); assay: Inhibition of 5-HT2C receptor (unknown origin) at 10 uM by PDSP assay relative to control
T3 sequence (whole entry): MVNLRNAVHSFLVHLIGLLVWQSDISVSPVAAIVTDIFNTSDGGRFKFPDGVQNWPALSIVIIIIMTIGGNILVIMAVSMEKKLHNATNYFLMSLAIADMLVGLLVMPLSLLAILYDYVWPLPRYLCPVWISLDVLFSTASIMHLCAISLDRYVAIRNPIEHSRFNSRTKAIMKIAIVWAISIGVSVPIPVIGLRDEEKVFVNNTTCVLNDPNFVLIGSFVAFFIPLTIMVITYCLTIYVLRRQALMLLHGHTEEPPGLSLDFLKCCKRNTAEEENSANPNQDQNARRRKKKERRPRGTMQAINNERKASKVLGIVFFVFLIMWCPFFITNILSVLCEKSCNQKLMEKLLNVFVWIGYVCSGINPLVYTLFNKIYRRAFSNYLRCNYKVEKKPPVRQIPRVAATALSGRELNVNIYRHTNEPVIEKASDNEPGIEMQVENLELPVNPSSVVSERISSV

[9] = Displacement of [3H]-DTG from sigma-2 receptor in rat PC12 cells; type: cell-based; settings: pc-12
[10] = target: T4, Alpha-1D adrenergic receptor (Homo sapiens) (UniProt P25100); assay: Inhibition of adrenergic alpha1D receptor (unknown origin) at 10 uM by PDSP assay relative to control
T4 sequence (whole entry): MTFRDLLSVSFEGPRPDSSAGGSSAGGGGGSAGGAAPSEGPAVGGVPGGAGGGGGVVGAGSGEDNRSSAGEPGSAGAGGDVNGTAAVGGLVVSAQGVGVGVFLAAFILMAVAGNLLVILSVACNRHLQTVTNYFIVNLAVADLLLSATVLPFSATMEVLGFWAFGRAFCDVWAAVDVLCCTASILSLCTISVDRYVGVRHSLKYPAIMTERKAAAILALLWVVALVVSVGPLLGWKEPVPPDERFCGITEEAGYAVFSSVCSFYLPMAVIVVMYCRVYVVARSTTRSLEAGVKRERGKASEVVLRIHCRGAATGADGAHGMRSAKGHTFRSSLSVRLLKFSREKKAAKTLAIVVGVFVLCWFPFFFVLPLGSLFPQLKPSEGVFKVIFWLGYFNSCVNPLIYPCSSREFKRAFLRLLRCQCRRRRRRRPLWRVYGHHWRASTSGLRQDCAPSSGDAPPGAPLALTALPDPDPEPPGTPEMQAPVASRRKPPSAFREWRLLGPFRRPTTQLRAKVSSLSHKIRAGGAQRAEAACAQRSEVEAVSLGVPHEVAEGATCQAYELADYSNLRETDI

[11] = target: T5, 5-hydroxytryptamine receptor 1A (Homo sapiens) (UniProt P08908); assay: Inhibition of 5-HT1A receptor (unknown origin) at 10 uM by PDSP assay relative to control
T5 sequence (whole entry): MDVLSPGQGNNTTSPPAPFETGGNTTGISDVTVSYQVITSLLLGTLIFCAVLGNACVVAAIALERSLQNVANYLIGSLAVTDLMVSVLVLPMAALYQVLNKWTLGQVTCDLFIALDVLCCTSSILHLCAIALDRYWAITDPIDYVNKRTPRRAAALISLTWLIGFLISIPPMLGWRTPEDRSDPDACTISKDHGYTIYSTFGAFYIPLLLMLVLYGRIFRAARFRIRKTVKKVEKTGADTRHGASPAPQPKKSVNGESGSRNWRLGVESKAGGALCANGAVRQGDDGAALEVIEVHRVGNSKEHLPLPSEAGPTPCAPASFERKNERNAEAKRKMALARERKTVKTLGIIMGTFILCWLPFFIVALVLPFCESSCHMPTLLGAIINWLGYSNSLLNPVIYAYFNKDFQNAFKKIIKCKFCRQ

Chain of 5-hydroxytryptamine receptor 1E (Homo sapiens) (P28566 whole entry): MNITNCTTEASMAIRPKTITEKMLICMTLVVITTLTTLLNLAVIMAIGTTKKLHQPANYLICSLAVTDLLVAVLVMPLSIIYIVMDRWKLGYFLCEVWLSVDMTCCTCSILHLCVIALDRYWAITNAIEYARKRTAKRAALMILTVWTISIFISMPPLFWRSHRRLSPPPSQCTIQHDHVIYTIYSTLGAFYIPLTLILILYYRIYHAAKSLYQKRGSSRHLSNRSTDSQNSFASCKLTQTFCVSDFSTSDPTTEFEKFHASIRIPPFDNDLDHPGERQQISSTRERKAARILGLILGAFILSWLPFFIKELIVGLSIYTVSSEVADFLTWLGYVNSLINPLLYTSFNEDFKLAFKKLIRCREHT

Compound: C1C2C3CC4C2C2C1C3[C@H](NCC13C5C6C7C5C1C7C63)C42 (some centres undefined)
- inhibition [1]: < 50%
- inhibition [2]: < 50%
- inhibition [3]: < 50%
- inhibition [4]: < 50%
- inhibition [5]: < 50%
- inhibition [6]: < 50%
- inhibition [7]: < 50%
- inhibition [8]: < 50%
- Ki [9]: 2 nM
- inhibition [10]: < 50%
- inhibition [11]: < 50%

Compound: CN(Cc1ccccc1)[C@H]1C2C3CC4C5C3CC2C5C41 (some centres undefined)
- inhibition [1]: < 50%
- inhibition [2]: < 50%
- inhibition [3]: < 50%
- inhibition [4]: < 50%
- inhibition [5]: < 50%
- inhibition [6]: < 50%
- inhibition [7]: < 50%
- inhibition [8]: < 50%
- Ki [9]: 50 nM
- inhibition [10]: < 50%
- inhibition [11]: < 50%

Compound: COc1cc(CN(C)[C@H]2C3C4CC5C6C4CC3C6C52)cc(OC)c1OC (some centres undefined)
- inhibition [1]: < 50%
- inhibition [2]: < 50%
- inhibition [3]: < 50%
- inhibition [4]: < 50%
- inhibition [5]: < 50%
- inhibition [6]: < 50%
- inhibition [7]: < 50%
- inhibition [8]: < 50%
- Ki [9]: 714 nM
- inhibition [10]: < 50%
- inhibition [11]: < 50%

Compound: CN(CCCc1cccc(F)c1)[C@H]1C2C3CC4C2C(=O)C2C4C3C21 (some centres undefined)
- inhibition [1]: < 50%
- inhibition [2]: < 50%
- inhibition [3]: < 50%
- inhibition [4]: < 50%
- inhibition [5]: < 50%
- inhibition [6]: < 50%
- inhibition [7]: < 50%
- inhibition [8]: < 50%
- Ki [9]: 30 nM
- inhibition [10]: < 50%
- inhibition [11]: < 50%

Compound: COc1ccc(CN(C)[C@H]2C3C4CC5C3C(=O)C3C5C4C32)cc1OC (some centres undefined)
- inhibition [1]: < 50%
- inhibition [2]: < 50%
- inhibition [3]: < 50%
- inhibition [4]: < 50%
- inhibition [5]: < 50%
- inhibition [6]: < 50%
- inhibition [7]: < 50%
- inhibition [8]: < 50%
- Ki [9]: 471 nM
- inhibition [10]: < 50%
- inhibition [11]: < 50%

Compound: CN(CC1CCCCC1)[C@H]1C2C3CC4C5C3CC2C5C41 (some centres undefined)
- inhibition [1]: < 50%
- inhibition [2]: < 50%
- inhibition [3]: < 50%
- inhibition [4]: < 50%
- inhibition [5]: < 50%
- inhibition [6]: < 50%
- inhibition [7]: < 50%
- inhibition [8]: < 50%
- Ki [9]: 14 nM
- inhibition [10]: < 50%
- inhibition [11]: < 50%

Compound: C1CCC(CN[C@H]2C3C4CC5C6C4CC3C6C52)CC1 (some centres undefined)
- inhibition [1]: < 50%
- inhibition [2]: < 50%
- inhibition [3]: < 50%
- inhibition [4]: < 50%
- inhibition [5]: < 50%
- inhibition [6]: < 50%
- inhibition [7]: < 50%
- inhibition [8]: < 50%
- Ki [9]: 1.9 nM
- inhibition [10]: < 50%
- inhibition [11]: < 50%

Compound: CN(CCc1ccccn1)[C@H]1C2C3CC4C5C3CC2C5C41 (some centres undefined)
- inhibition [1]: < 50%
- inhibition [2]: < 50%
- inhibition [3]: < 50%
- inhibition [4]: < 50%
- inhibition [5]: < 50%
- inhibition [6]: < 50%
- inhibition [7]: < 50%
- inhibition [8]: < 50%
- Ki [9]: 32 nM
- inhibition [10]: < 50%
- inhibition [11]: < 50%

Compound: CN(CCCc1cccc(F)c1)[C@H]1C2C3CC4C5C3CC2C5C41 (some centres undefined)
- inhibition [1]: < 50%
- inhibition [2]: < 50%
- inhibition [3]: < 50%
- inhibition [4]: < 50%
- inhibition [5]: < 50%
- inhibition [6]: < 50%
- inhibition [7]: < 50%
- inhibition [8]: < 50%
- Ki [9]: 11 nM
- inhibition [10]: < 50%
- inhibition [11]: < 50%
